Measurements reported in US20250281497A1, “FUSED AMINO PYRIMIDINE COMPOUNDS FOR TREATMENT OF SEIZURE DISORDERS” (Ovid Therapeutics Inc., priority 2024, published 2025).

Biological target: T1, NKCC1 (Homo sapiens, UniProt P55011)
T1 construct: expressed in transfected cells; host or cells: HEK-293
T1 sequence (P55011 1-1212): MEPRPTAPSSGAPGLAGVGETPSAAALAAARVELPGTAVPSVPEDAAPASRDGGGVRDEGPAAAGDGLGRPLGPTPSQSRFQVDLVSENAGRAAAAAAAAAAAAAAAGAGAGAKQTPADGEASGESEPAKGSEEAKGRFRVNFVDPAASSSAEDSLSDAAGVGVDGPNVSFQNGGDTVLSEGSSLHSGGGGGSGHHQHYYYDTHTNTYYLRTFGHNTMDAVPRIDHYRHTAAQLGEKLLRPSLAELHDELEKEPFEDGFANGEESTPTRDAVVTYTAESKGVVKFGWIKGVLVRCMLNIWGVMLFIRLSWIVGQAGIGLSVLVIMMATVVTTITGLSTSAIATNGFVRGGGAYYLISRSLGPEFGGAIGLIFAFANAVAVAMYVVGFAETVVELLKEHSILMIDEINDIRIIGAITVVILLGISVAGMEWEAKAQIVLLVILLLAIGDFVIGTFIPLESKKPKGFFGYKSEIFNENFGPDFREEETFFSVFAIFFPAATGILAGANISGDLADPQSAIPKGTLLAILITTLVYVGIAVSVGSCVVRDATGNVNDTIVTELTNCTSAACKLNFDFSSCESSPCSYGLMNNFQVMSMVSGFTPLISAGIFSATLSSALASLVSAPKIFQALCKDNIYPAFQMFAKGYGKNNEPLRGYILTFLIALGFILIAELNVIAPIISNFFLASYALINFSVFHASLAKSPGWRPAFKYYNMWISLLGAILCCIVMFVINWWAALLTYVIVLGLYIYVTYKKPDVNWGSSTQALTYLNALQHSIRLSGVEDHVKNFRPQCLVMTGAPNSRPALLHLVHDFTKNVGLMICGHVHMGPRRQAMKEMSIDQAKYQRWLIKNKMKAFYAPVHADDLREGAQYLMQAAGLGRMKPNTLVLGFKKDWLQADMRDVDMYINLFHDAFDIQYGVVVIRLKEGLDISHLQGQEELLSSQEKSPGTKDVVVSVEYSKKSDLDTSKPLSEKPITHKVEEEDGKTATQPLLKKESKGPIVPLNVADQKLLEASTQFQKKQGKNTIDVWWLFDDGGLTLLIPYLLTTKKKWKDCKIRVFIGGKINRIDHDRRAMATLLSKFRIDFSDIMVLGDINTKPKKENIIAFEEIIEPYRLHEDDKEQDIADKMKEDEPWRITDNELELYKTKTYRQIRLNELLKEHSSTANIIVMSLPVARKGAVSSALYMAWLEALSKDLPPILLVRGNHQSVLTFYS
Experiment: Tl+ assay, HEK-293 cells expressing NKCC1
Format: cell-based
Conditions: read-out: concentration at which effects on NKCC1 were seen (EC50 chart FIG. 1G)
Experimental: FLIPR TI Flux assay. HEK-293 cells were washed with HBSS, and then incubated with loading buffer containing TI sensitive fluorescent dye (https://www.moleculardevices.com), 20 μM bumetanide 20 μM ouabain and 2.5 mM probenecid for 1 h at room temperature (RT) under control conditions or with drugs in the dark using a FlexStation 3 microplate reader (Molecular Devices) and imaged […] for 30 min. Stimulus buffer was added containing 5 mM K^+/0.5 mM Tl^+ and cells were imaged every 1.5 over a 190 second time course The initial rate Tl^+ uptake (Relative Fluorescence Units (RFU) per second) was determined following addition of the stimulus buffer as outlined previously (Conway et at, 2017, supra) (Lee et at, 2022, supra).
Several studies have shown that the activity and plasma membrane accumulation of KCC2 is potentiated via phosphorylation of S940, a process mediated by the activity of protein kinase C and protein phosphatase 1 (Lee et al., 2011, supra; Lee et al., J Biol Chem 282, 29777-29784 (2007); Moore et al., Proc. Natl. Acad. Sci. U.S.A. 115, 10166-10171 (2018); Moore et al., Trends Neurosci. 40, 555-571 (2017); Silayeva et al., Proc. Natl. Acad. Sci. U.S.A. 112, 3523-3528 (2015)). […] Compared to KCC2, effects on KCC3, KCC4, and NKCC1 were only seen at concentrations more than 35-fold that of KCC2 (>100 μM) (FIG. 1G).

C[C@@H]1CN(c2nc3c(c(Nc4ccc(C5CCCCC5)cc4)n2)COC3)CCO1 [Compound A, (R)—N-(4-cyclohexylphenyl)-2-(2-methylmorpholino)-5,7-dihydrofuro[3,4-d]pyrimidin-4-amine]
EC50: > 100 µM
